# Assays:
# Aurora A = conditions: read-out: IC50 for Aurora A; ref D'Alise et al., [2008]; cited from earlier work
# Aurora C = conditions: read-out: IC50 for Aurora C; ref D'Alise et al., [2008]; cited from earlier work
# CERK1 = test: CERK1-CD kinase activity; type: biochemical, Arabidopsis
# Description: (§1) Fig. S10. […] (a) Effects of FER inhibitors on the kinase activity of the Arabidopsis receptor kinase PEPR1 and CERK1 cytoplasmic domains (CDs). […] AT1G73080. […] AT3G21630. DMSO (0.05%; v/v) was used as a negative control. The data are shown as the means ± SDs (n = 4). The assay was repeated three times with similar results. ***, […]) Protein purification of PEPR1-CD and CERK1-CD. […] In (c and d), the data are presented as the means ± SDs of three biological replicates.
# Ralstonia solanacearum = type: in vivo; conditions: Arabidopsis seedlings pretreated with 5 μM, 4 days after inoculation
# PEPR1 = test: PEPR1-CD kinase activity; type: biochemical, Arabidopsis
# Description: as §1
# Aurora B = conditions: read-out: IC50 for Aurora B; ref D'Alise et al., [2008]; cited from earlier work
# [1] = target: EGFR‐associated tyrosine kinase; set-up: method as in Hsu et al., [1991]; conditions: ref Hsu et al., [1991]; cited from earlier work
Structure (SMILES),IC50 (Aurora A) [nM],IC50 (Aurora C) [nM],Effect on CERK1 kinase activity (CERK1),Cotyledon bleaching caused by R. solanacearum (Ralstonia solanacearum),Effect on PEPR1 kinase activity (PEPR1),IC50 (Aurora B) [nM],IC50 for EGFR-associated tyrosine kinase [1]
c1nc2nc(Nc3ccc(N4CCOCC4)cc3)nc(NC3CCCCC3)c2[nH]1 [Reversine],[…],[…],did not affect the kinase activity,effectively prevented the cotyledon bleaching,did not affect the kinase activity,[…],–
O=C(O)c1cc(N(Cc2ccccc2O)Cc2cc(O)ccc2O)ccc1O [Lavendustin A],–,–,did not affect the kinase activity,effectively prevented the cotyledon bleaching,did not affect the kinase activity,–,"Lavendustin A (RG‐14355), isolated from Streptomyces Griseolavendus, is a potent, specific and ATP‐competitive inhibitor of tyrosine kinase, with an IC50 of 11 ng/mL for EGFR‐associated tyrosine kinase (Hsu et al., [1991])"

# From PMC9829398 (Plant Biotechnology Journal, 2022)
